Reference: PubChem BioAssay (NCI)
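Abbreviation: GI50, concentration required for 50% inhibition of growth. TGI: concentration producing complete growth inhibition.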

Legend:
Assay in all cases: growth of human tumour cells (NCI), 384-well format
SF-295 CNS = tested on: SF-295 CNS
NCI/ADR-RES ovarian = tested on: NCI/ADR-RES ovarian
HCT-15 colon = tested on: HCT-15 colon
UO-31 renal = tested on: UO-31 renal
RPMI-8226 leukemia = tested on: RPMI-8226 leukemia
HOP-92 NSCLC = tested on: HOP-92 NSCLC
HL-60(TB) leukemia = tested on: HL-60(TB) leukemia
SK-MEL-5 melanoma = tested on: SK-MEL-5 melanoma
HOP-62 NSCLC = tested on: HOP-62 NSCLC
SN12C renal = tested on: SN12C renal
K-562 leukemia = tested on: K-562 leukemia
U251 glioblastoma = tested on: U251 glioblastoma
SNB-75 CNS = tested on: SNB-75 CNS
HCT-116 colon = tested on: HCT-116 colon
BT-549 breast = tested on: BT-549 breast
HS 578T breast = tested on: HS 578T breast
OVCAR-5 ovarian = tested on: OVCAR-5 ovarian
NCI-H226 lung = tested on: NCI-H226 lung
MCF7 breast = tested on: MCF7 breast
MALME-3M melanoma = tested on: MALME-3M melanoma
EKVX NSCLC = tested on: EKVX NSCLC
NCI-H23 lung = tested on: NCI-H23 lung
A498 renal = tested on: A498 renal
RXF 393 renal = tested on: RXF 393 renal
TK-10 renal = tested on: TK-10 renal
NCI-H460 NSCLC = tested on: NCI-H460 NSCLC
UACC-257 melanoma = tested on: UACC-257 melanoma
SF-539 CNS = tested on: SF-539 CNS
NCI-H322M lung = tested on: NCI-H322M lung
SR leukemia = tested on: SR leukemia
T-47D breast = tested on: T-47D breast
IGROV1 ovarian = tested on: IGROV1 ovarian
MDA-MB-435 melanoma = tested on: MDA-MB-435 melanoma
SK-MEL-2 melanoma = tested on: SK-MEL-2 melanoma
SW-620 colon = tested on: SW-620 colon
SF-268 CNS = tested on: SF-268 CNS
SK-OV-3 ovarian = tested on: SK-OV-3 ovarian
MDA-MB-231 breast = tested on: MDA-MB-231 breast
M14 melanoma = tested on: M14 melanoma
LOX IMVI melanoma = tested on: LOX IMVI melanoma
OVCAR-3 ovarian = tested on: OVCAR-3 ovarian
HT29 colon = tested on: HT29 colon
OVCAR-4 ovarian = tested on: OVCAR-4 ovarian
DU-145 prostate = tested on: DU-145 prostate
COLO 205 colon = tested on: COLO 205 colon
KM12 colon = tested on: KM12 colon
UACC-62 melanoma = tested on: UACC-62 melanoma
ACHN renal = tested on: ACHN renal
PC-3 prostate = tested on: PC-3 prostate
MDA-MB-468 breast = tested on: MDA-MB-468 breast
NCI-H522 lung = tested on: NCI-H522 lung
SK-MEL-28 melanoma = tested on: SK-MEL-28 melanoma
CAKI-1 renal = tested on: CAKI-1 renal
MOLT-4 leukemia = tested on: MOLT-4 leukemia
SNB-19 CNS = tested on: SNB-19 CNS
A549 NSCLC = tested on: A549 NSCLC
786-0 renal = tested on: 786-0 renal
CCRF-CEM leukemia = tested on: CCRF-CEM leukemia
HCC-2998 colon = tested on: HCC-2998 colon

In the case of COc1cc(-c2ncn(/C=C\C(=O)OC(C)C)n2)cc(C(F)(F)F)c1, the GI50 (SF-295 CNS) is reported as 214 nM, the TGI (SF-295 CNS) is reported as 2300 nM and the GI50 (NCI/ADR-RES ovarian) is reported as 54.9 nM. The TGI (NCI/ADR-RES ovarian) was 1270 nM, the GI50 (HCT-15 colon) was 45.8 nM and the TGI (HCT-15 colon) was 1040 nM. For the same compound, the GI50 (UO-31 renal) was 166 nM, the TGI (UO-31 renal) was 1580 nM and the GI50 (RPMI-8226 leukemia) was 13.6 nM. It also gave a TGI (RPMI-8226 leukemia) of 32.5 nM, a GI50 (HOP-92 NSCLC) of 69.5 nM and a TGI (HOP-92 NSCLC) of 1550 nM. The GI50 (HL-60(TB) leukemia) was 23.7 nM, the TGI (HL-60(TB) leukemia) was 118 nM and the GI50 (SK-MEL-5 melanoma) was 137 nM. The TGI (SK-MEL-5 melanoma) was 601 nM, the GI50 (HOP-62 NSCLC) was 291 nM and the TGI (HOP-62 NSCLC) was 1530 nM. The GI50 (SN12C renal) was 283 nM, the TGI (SN12C renal) was 1770 nM and the GI50 (K-562 leukemia) was 30.4 nM. The TGI (K-562 leukemia) was 177 nM, the GI50 (U251 glioblastoma) was 39.2 nM and the TGI (U251 glioblastoma) was 275 nM. It also gave a GI50 (SNB-75 CNS) of 91.9 nM, a TGI (SNB-75 CNS) of 311 nM and a GI50 (HCT-116 colon) of 85 nM. The TGI (HCT-116 colon) was 311 nM, the GI50 (BT-549 breast) was 19 nM and the TGI (BT-549 breast) was 46.5 nM. It also gave a GI50 (HS 578T breast) of 68.1 nM, a TGI (HS 578T breast) of 461 nM and a GI50 (OVCAR-5 ovarian) of 117 nM. It also gave a TGI (OVCAR-5 ovarian) of 10000 nM, a GI50 (NCI-H226 lung) of 20.8 nM and a TGI (NCI-H226 lung) of 483 nM. For the same compound, the GI50 (MCF7 breast) was 65.9 nM, the TGI (MCF7 breast) was 982 nM and the GI50 (MALME-3M melanoma) was 171 nM. The TGI (MALME-3M melanoma) was 609 nM, the GI50 (EKVX NSCLC) was 429 nM and the TGI (EKVX NSCLC) was 6090 nM. It also gave a GI50 (NCI-H23 lung) of 56.4 nM, a TGI (NCI-H23 lung) of 1140 nM and a GI50 (A498 renal) of 114 nM. It also gave a TGI (A498 renal) of 1250 nM, a GI50 (RXF 393 renal) of 16.6 nM and a TGI (RXF 393 renal) of 68.7 nM. The GI50 (TK-10 renal) was 37.9 nM, the TGI (TK-10 renal) was 1200 nM and the GI50 (NCI-H460 NSCLC) was 29.6 nM. For the same compound, the TGI (NCI-H460 NSCLC) was 163 nM, the GI50 (UACC-257 melanoma) was 552 nM and the TGI (UACC-257 melanoma) was 4600 nM. For the same compound, the GI50 (SF-539 CNS) was 20.5 nM, the TGI (SF-539 CNS) was 71.2 nM and the GI50 (NCI-H322M lung) was 295 nM. For the same compound, the TGI (NCI-H322M lung) was 2530 nM, the GI50 (SR leukemia) was 11 nM and the TGI (SR leukemia) was 23.7 nM. The GI50 (T-47D breast) was 229 nM, the TGI (T-47D breast) was 3730 nM and the GI50 (IGROV1 ovarian) was 92.8 nM. It also gave a TGI (IGROV1 ovarian) of 2090 nM, a GI50 (MDA-MB-435 melanoma) of 43.3 nM and a TGI (MDA-MB-435 melanoma) of 210 nM. It also gave a GI50 (SK-MEL-2 melanoma) of 44.3 nM, a TGI (SK-MEL-2 melanoma) of 69.5 nM and a GI50 (SW-620 colon) of 56.1 nM. It also gave a TGI (SW-620 colon) of 1250 nM, a GI50 (SF-268 CNS) of 29.9 nM and a TGI (SF-268 CNS) of 88.8 nM. For the same compound, the GI50 (SK-OV-3 ovarian) was 2340 nM, the TGI (SK-OV-3 ovarian) was 14300 nM and the GI50 (MDA-MB-231 breast) was 51.4 nM. The TGI (MDA-MB-231 breast) was 663 nM, the GI50 (M14 melanoma) was 123 nM and the TGI (M14 melanoma) was 382 nM. It also gave a GI50 (LOX IMVI melanoma) of 198 nM, a TGI (LOX IMVI melanoma) of 826 nM and a GI50 (OVCAR-3 ovarian) of 26.4 nM. It also gave a TGI (OVCAR-3 ovarian) of 151 nM, a GI50 (HT29 colon) of 74.3 nM and a TGI (HT29 colon) of 1120 nM. For the same compound, the GI50 (OVCAR-4 ovarian) was 244 nM, the TGI (OVCAR-4 ovarian) was 2040 nM and the GI50 (DU-145 prostate) was 162 nM. The TGI (DU-145 prostate) was 866 nM, the GI50 (COLO 205 colon) was 48.2 nM and the TGI (COLO 205 colon) was 1260 nM. For the same compound, the GI50 (KM12 colon) was 217 nM, the TGI (KM12 colon) was 1150 nM and the GI50 (UACC-62 melanoma) was 42.4 nM. For the same compound, the TGI (UACC-62 melanoma) was 179 nM, the GI50 (ACHN renal) was 57.5 nM and the TGI (ACHN renal) was 1500 nM. The GI50 (PC-3 prostate) was 37.4 nM, the TGI (PC-3 prostate) was 232 nM and the GI50 (MDA-MB-468 breast) was 150 nM. For the same compound, the TGI (MDA-MB-468 breast) was 336 nM, the TGI (NCI-H522 lung) was 92.6 nM and the GI50 (SK-MEL-28 melanoma) was 222 nM. For the same compound, the TGI (SK-MEL-28 melanoma) was 1610 nM, the GI50 (CAKI-1 renal) was 34.7 nM and the TGI (CAKI-1 renal) was 3950 nM. For the same compound, the GI50 (MOLT-4 leukemia) was 12.6 nM, the TGI (MOLT-4 leukemia) was 25.9 nM and the GI50 (SNB-19 CNS) was 444 nM. For the same compound, the TGI (SNB-19 CNS) was 3150 nM, the GI50 (A549 NSCLC) was 87.4 nM and the TGI (A549 NSCLC) was 1360 nM. The GI50 ([…]-0 renal) was 37.3 nM, the TGI (786-0 renal) was 1200 nM and the GI50 (CCRF-CEM leukemia) was 40.9 nM. It also gave a TGI (CCRF-CEM leukemia) of 182 nM, a GI50 (HCC-2998 colon) of 89.2 nM and a TGI (HCC-2998 colon) of 838 nM.
